# Assays:
# [1] = target: MAPK14 (UniProt Q16539); assay: Inhibition of MAPK14 Kinase Activity (Spectrophometric Assay)
# [2] = target: MAPK14 (UniProt Q16539); assay: Inhibition of MAPK14 Kinase Activity (Binding Assay)
# [3] = target: ROCK2 (rat) (UniProt Q62868); assay: ROCK-II Kinase Inhibition; details: concentration not given here
# [4] = target: MAPK14 (human) (UniProt Q16539); assay: p38-alpha Kinase Inhibition; details: concentration not given here
# [5] = target: EGFR (UniProt P00533); details: concentration not given here
# Sequence of EGFR (P00533 whole entry, looked up): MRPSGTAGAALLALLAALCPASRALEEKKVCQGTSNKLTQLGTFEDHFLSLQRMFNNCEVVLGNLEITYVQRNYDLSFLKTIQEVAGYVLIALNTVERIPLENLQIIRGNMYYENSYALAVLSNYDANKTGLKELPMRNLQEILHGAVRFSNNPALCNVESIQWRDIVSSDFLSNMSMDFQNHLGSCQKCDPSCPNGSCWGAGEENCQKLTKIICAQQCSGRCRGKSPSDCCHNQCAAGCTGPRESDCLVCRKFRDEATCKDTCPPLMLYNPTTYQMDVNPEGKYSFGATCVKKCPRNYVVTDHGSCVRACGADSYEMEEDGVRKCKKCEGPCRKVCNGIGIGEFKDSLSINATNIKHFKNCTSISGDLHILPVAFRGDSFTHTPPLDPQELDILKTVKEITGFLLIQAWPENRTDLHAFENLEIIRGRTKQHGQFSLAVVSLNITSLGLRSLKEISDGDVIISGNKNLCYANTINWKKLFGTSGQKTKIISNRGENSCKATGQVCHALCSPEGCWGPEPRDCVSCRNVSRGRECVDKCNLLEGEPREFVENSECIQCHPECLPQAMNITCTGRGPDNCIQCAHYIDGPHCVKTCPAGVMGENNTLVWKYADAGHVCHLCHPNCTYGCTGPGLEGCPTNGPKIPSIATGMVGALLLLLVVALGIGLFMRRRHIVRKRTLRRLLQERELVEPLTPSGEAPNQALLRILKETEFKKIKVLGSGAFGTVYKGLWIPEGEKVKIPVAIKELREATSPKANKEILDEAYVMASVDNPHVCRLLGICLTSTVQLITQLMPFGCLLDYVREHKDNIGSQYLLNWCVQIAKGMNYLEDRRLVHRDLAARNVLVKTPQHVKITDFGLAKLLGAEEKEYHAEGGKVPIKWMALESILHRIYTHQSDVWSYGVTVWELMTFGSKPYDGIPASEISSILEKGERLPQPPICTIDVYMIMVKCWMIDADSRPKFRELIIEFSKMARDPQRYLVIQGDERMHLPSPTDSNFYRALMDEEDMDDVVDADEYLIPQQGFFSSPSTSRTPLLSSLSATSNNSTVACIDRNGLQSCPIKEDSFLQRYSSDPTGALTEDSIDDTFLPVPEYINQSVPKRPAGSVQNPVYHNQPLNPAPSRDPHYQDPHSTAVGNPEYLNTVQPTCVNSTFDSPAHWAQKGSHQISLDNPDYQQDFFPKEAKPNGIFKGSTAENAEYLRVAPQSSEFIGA
# [6] = target: EGFR (human) (UniProt P00533)
# Sequence of EGFR (human) (P00533 whole entry, looked up): as above
# [7] = target: PIK3CA (human), P42336 [Assessment of PIK3CA (Mutant) Kinase Activity in MCF-7.1 Cell Line]; assay: Assessment of PIK3CA (Mutant) Kinase Activity in MCF-7.1 Cell Line; details: mcf-7
# Sequence of PIK3CA (human), P42336 [Assessment of PIK3CA (Mutant) Kinase Activity in MCF-7.1 Cell Line] (P42336 whole entry, looked up, change not shown): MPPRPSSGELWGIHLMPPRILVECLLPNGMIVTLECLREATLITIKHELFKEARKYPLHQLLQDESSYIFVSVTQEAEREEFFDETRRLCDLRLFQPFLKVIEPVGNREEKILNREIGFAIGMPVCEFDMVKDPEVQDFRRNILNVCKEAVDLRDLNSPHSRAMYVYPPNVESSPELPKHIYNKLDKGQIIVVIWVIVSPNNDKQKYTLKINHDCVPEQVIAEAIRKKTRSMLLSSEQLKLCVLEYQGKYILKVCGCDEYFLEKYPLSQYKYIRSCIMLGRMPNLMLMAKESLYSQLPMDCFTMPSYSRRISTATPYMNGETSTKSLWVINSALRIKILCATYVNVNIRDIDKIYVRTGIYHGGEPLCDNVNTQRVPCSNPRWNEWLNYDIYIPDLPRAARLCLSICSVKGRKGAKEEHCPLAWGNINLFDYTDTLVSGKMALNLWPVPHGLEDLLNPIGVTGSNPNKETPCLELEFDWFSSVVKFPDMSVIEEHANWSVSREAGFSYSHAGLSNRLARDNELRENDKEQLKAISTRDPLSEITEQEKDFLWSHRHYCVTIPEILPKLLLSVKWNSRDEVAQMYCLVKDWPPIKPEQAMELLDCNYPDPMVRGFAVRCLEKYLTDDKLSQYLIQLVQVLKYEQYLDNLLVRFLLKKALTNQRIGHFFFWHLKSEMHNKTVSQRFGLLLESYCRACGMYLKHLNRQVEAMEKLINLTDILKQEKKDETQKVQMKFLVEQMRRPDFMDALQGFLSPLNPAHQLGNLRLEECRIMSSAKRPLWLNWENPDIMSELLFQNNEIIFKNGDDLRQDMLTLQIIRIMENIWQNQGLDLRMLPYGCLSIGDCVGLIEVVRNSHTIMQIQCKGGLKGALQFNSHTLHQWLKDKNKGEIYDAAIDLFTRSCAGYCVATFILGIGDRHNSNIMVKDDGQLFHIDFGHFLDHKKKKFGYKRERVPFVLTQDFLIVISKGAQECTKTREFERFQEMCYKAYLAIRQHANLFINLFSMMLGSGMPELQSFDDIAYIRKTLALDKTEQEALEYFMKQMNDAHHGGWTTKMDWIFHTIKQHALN
# [8] = target: EGFR (UniProt P00533)
# [9] = target: EGFR (human) (UniProt P00533); remark: listed apart in the source
# [10] = target: MAPK14 (human) (UniProt Q16539); assay: Inhibition of MAPK14 Kinase Activity
# [11] = target: EGFR (human) (UniProt P00533); details: a431
# [12] = target: EGFR (UniProt P00533); remark: listed apart in the source
# [13] = target: MAPK14 (UniProt Q16539); assay: Inhibition of MAPK14 Kinase Activity
# [14] = target: MAPK14 (UniProt Q16539); assay: Inhibition of TNF-alpha Production
# [15] = target: EGFR (human) (UniProt P00533); remark: listed apart in the source
# [16] = target: EGFR (human) (UniProt P00533); details: hn5
# [17] = target: CDK2 (UniProt P24941); assay: Enzyme Assay
# [18] = target: CDK2 (UniProt P24941); assay: Enzyme Assay; remark: listed apart in the source
# [19] = target: EGFR (human) (UniProt P00533); remark: listed apart in the source
# [20] = target: EGFR (human) (UniProt P00533); details: hn5; remark: listed apart in the source
# [21] = target: EGFR (UniProt P00533); remark: listed apart in the source
# [22] = target: EGFR (human) (UniProt P00533); details: kb
# [23] = target: EGFR (human) (UniProt P00533); details: hn5; remark: listed apart in the source
# [24] = target: EGFR (human) (UniProt P00533); details: kb; remark: listed apart in the source
# [25] = target: PIK3CA (human) (UniProt P42336); assay: Inhibition of PIK3CA Kinase Activity in HeLa Cells
# Sequence of PIK3CA (human) (P42336 whole entry, looked up): as the sequence (P42336 whole entry, looked up, change not shown) above
# [26] = target: EGFR (human) (UniProt P00533); details: A431
# [27] = target: EGFR (human) (UniProt P00533); remark: listed apart in the source
# [28] = target: EGFR (human) (UniProt P00533); remark: listed apart in the source
# [29] = target: EGFR (human) (UniProt P00533); details: a431; remark: listed apart in the source
# [30] = target: EGFR (human), P00533 [WT]
# [31] = target: EGFR (human) (UniProt P00533); remark: listed apart in the source
# [32] = target: MAPK14 (human) (UniProt Q16539); assay: Inhibition of MAPK14 Kinase Activity; remark: listed apart in the source
# [33] = target: PIK3CA (human) (UniProt P42336); assay: Inhibition of PIK3CA Kinase Activity (FP Assay)
# [34] = target: PIK3CG (human) (UniProt P48736); assay: Inhibition of PIK3CG Kinase Activity
# Sequence of PIK3CG (human) (P48736 whole entry, looked up): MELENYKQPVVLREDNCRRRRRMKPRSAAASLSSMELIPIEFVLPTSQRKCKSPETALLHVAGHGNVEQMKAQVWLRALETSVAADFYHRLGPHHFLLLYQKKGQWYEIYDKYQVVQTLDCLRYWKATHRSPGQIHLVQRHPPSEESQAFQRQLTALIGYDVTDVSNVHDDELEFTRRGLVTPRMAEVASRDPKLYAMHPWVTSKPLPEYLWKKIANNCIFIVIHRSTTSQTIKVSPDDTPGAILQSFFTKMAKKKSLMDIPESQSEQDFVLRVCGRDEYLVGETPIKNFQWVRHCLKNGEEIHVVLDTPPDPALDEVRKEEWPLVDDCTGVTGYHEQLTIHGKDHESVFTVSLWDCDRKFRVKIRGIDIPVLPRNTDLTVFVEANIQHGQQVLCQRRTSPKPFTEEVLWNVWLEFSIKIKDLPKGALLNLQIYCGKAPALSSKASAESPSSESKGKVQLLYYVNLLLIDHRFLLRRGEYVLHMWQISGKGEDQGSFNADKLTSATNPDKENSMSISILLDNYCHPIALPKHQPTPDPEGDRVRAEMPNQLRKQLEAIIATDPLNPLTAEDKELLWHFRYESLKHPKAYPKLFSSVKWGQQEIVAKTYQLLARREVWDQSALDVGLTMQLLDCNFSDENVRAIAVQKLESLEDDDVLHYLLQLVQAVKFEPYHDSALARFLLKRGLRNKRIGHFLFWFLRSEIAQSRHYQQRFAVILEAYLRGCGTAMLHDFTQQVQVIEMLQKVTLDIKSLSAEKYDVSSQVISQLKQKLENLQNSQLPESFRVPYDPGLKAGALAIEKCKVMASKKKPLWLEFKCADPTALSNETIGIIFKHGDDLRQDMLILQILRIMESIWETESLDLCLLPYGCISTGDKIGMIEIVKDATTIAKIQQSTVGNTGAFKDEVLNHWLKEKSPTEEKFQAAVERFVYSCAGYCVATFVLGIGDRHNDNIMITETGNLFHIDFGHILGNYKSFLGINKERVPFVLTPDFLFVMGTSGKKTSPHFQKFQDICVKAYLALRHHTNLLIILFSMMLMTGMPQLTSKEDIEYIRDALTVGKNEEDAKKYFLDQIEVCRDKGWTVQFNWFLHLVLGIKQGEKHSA
# [35] = target: EGFR (UniProt P00533); remark: listed apart in the source
# [36] = target: CDK2 (human) (UniProt P24941)
# [37] = target: CDK2 (UniProt P24941); assay: Enzyme Assay; remark: listed apart in the source
# Sequence of MAPK14 (Q16539 whole entry, looked up): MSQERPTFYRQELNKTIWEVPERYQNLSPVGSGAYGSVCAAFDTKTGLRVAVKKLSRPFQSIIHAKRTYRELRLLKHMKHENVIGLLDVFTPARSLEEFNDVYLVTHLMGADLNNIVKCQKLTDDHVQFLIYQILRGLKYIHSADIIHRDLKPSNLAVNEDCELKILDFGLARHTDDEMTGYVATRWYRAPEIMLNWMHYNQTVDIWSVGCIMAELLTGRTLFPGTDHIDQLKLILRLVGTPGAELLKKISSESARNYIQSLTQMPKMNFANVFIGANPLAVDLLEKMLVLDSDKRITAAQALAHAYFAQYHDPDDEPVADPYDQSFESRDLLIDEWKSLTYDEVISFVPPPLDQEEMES
# Sequence of MAPK14 (human) (Q16539 whole entry, looked up): as above
structure (smiles),measurement,setting,value
CC12CC(C(=O)O)CC(C)(C1)C(=O)N(Cc1cccc(-n3nc(C(C)(C)C)cc3NC(=O)Nc3cccc4ccccc34)c1)C2=O (centres undefined),IC50,[1],953 nM
same,IC50,[2],2150 nM
COc1cc(OC)c(/C=C2/C(=O)Nc3ccccc32)c(OC)c1,activity,[3],96%
same,activity,[4],86%
O=C1NCc2c1c1c3ccc(O)cc3[nH]c1c1[nH]c3ccccc3c21,inhibition,[5],50 to 80%
COc1cc2ncc(C#N)c(Nc3ccc(Sc4nc(-c5ccccc5)cs4)c(Cl)c3)c2cc1C(C(N)=O)C(CN(C)C)N(C)C (centres undefined),IC50,[6],3.2 µg/mL
Cc1nc(N)ncc1-c1nc(N2CCOCC2)c2sc(CN3CCN(S(C)(=O)=O)CC3)cc2n1,IC50,[7],290 nM
COc1cc2c(NC3=CC(=O)C(OC(CF)CF)=CC3=O)ncnc2cc1OCC1CCN(C)CC1,IC50,[8],1.8 to 117 µM
Clc1cccc(Nc2cncc(-c3cncc(NCCCc4ccncc4)c3)n2)c1,IC50,[9],> 100 µM
N#Cc1cnc2cnc(NCc3cccnc3)cc2c1NC1CCCCCC1,IC50,[10],> 40000 nM
same,IC50,[11],> 40 µM
CN1CCC(Oc2cccc3ncnc(Nc4ccc(OCc5cscn5)c(Cl)c4)c23)CC1,IC50,[12],280 nM
CN1CC2CCC1CC2Nc1cc2c(ccc(=O)n2-c2c(Cl)cccc2Cl)c(-c2ccccc2Cl)n1 (centres undefined),IC50,[13],0.4 nM
same,IC50,[14],24 nM
O=S(=O)(CCNCc1ccc(-c2ccc3ncnc(Nc4ccc(OCc5cccc(F)c5)c(Cl)c4)c3c2)o1)c1ccccn1,IC50,[15],19 nM
same,IC50,[16],1550 nM
Cc1c(-c2ccnc(Nc3cccc(CCNS(C)(=O)=O)c3)n2)sc(=O)n1C,Ki,[17],39 nM
same,Ki,[18],42 nM
N#Cc1cnc2cc3c(cc2c1Nc1ccc(F)c(Cl)c1)N(C(=O)/C=C/CBr)CCO3,IC50,[19],1000 nM
C#Cc1cccc(Nc2ncnc3ccc(OCCCCNCCS(C)(=O)=O)cc23)c1,IC50,[20],45 nM
COc1ccc(C#CC(C)(C)O)cc1-c1n[nH]c2nc(Nc3ccc(F)cc3F)ncc12,IC50,[21],5.2 µM
CNC(=O)C1(N(C)Cc2cc3c(Nc4cccc(Cl)c4F)ncnc3cc2OC)CCN(C)CC1,IC50,[22],36 nM
CS(=O)(=O)CCNCc1cc(-c2cc3ncnc(Nc4ccc(OCc5cccc(F)c5)c(Cl)c4)c3s2)cs1,IC50,[23],100 nM
CNC(=O)CN1CCC(Oc2cc3c(Nc4ccc(F)c(Cl)c4F)ncnc3cc2OC)CC1,IC50,[24],9 nM
Cc1ccc(Sc2cccc3[nH]c4nc(N)nc(N)c4c23)cc1,EC50,[25],12.2 µM
same,IC50,[26],14.1 µM
COc1cc2ncnc(Oc3ccc(Br)cc3F)c2cc1OC,IC50,[27],5.9 µM
CS(=O)(=O)CCNCc1ccc(-c2ccc3ncnc(Nc4ccc(OCc5cccc(F)c5)c(Br)c4)c3c2)o1,IC50,[28],< 100 nM
Nc1ccc(NC(=O)Nc2cccc3c2C(=O)c2c-3n[nH]c2-c2ccc(O)cc2)cc1,GI50,[29],> 10 µM
Brc1cccc(Nc2ccnc3ccccc23)c1,IC50,[30],5.5 µM
COc1cc2c(cc1OC)Oc1ncnc(Oc3cccc(Br)c3)c1N(C)C2,IC50,[31],4.6 µM
O=C1NC(=O)c2c1c1c3ccccc3[nH]c1c1[nH]c3cc(O)c(O)cc3c21,inhibition,[5],50 to 80%
Cc1nc(N)ncc1-c1nc(N2CCOCC2)c2sc(C(C)(C)O)cc2n1,IC50,[7],280 nM
CONC(=O)c1ccc(C)c(Nc2nc(NCC3CCCC(CN)C3)nc(NC3CCCCC3C)n2)c1 (centres undefined),IC50,[10],2 nM
same,IC50,[32],2 nM
COC1=CC(=O)C(Nc2ncnc3cc(OCC4CCN(C)CC4)c(OC)cc23)=CC1=O,IC50,[8],2.2 to 200 µM
COC[C@H]1OC(=O)/C(=C/N(C)CCCN(C)C)C2=C(O)C(=O)C3=C([C@H](OC(C)=O)C[C@@]4(C)C3CC[C@@H]4O)[C@]21C (some centres undefined),IC50,[33],6.4 nM
same,IC50,[34],8 nM
CCOc1cc2ncc(C#N)c(Nc3ccc(F)c(Cl)c3)c2cc1NC(=O)CC(CN(C)C)SCC(NC(=O)CC[C@@H](N)C(=O)O)C(=O)NCC(=O)O (some centres undefined),IC50,[6],1.7 µg/mL
CNC(=O)N1CCN(Cc2ccnc(Nc3ncc(C#N)s3)c2C)CC1,IC50,[17],13.7 µM
same,IC50,[35],> 19.2 µM
N=C(N)NS(=O)(=O)c1ccc(NC2=Cc3ccc(C(=O)c4c(Cl)cccc4Cl)cc3C2)cc1,IC50,[36],250 nM
COc1ccc2c(-c3ccc(N4CCC(N)C4)cc3)nc(N)nc2c1C(C)C (centres undefined),IC50,[17],2.55 µM
same,IC50,[37],296 nM

# From the Kinase Knowledgebase extract (Sharma et al. 2016)
